Key:
[1] = tested on: Group G Streptococcus; assay: Spectrum of antibacterial activity of GML; assay type: cell-based; conditions: optimal growth conditions; 1 strain tested
[2] = tested on: Enterococcus faecalis; assay: Spectrum of antibacterial activity of GML; assay type: cell-based; conditions: optimal growth conditions; 1 strain tested
[3] = tested on: Bacillus anthracis Sterne; assay type: cell-based; conditions: optimal growth conditions; 1 strain tested
[4] = tested on: Bacillus cereus; assay: Spectrum of antibacterial activity of GML; assay type: cell-based; conditions: optimal growth conditions; 1 strain tested
[5] = tested on: Peptostreptococcus species; assay: Spectrum of antibacterial activity of GML; assay type: cell-based; conditions: optimal growth conditions; 1 strain tested
[6] = tested on: Clostridium perfringens; assay type: cell-based; conditions: optimal growth conditions; 1 strain tested
[7] = tested on: Gardnerella vaginalis; assay: Spectrum of antibacterial activity of GML; assay type: cell-based; conditions: optimal growth conditions; 2 strains tested
[8] = tested on: Salmonella minnesota; assay: Spectrum of antibacterial activity of GML; assay type: cell-based; conditions: optimal growth conditions; 1 strain tested
[9] = tested on: Proteus vulgaris; assay: Spectrum of antibacterial activity of GML; assay type: cell-based; conditions: optimal growth conditions; 1 strain tested
[10] = tested on: Streptococcus agalactiae; assay: GML in vegetable oil, growth in Todd Hewitt broth (CFU/mL); assay type: cell-based; conditions: GML in olive, palm or corn oil (all 3); 18 hours, 37° C.
[11] = tested on: E. coli (Watson strain); assay: Effect of pH on GML activity; assay type: cell-based; conditions: for bactericidal GML concentration: 24 hours
Description: An experiment was conducted to determine the effect of GML in the presence of various pH levels on the growth of E. coli. E. coli (Watson strain) was grown in Todd Hewitt media and adjusted to […]. Using acetate buffer, the pH of the cultures was adjusted to 5.0, 6.0, or 7.0. […] Samples were removed for enumeration of CFU/mL at 24 hours.

[12] = tested on: Haemophilus influenzae; assay: Effect of pH on GML activity; assay type: cell-based; conditions: 1 μg/mL GML
Description: A similar experiment was carried out to assess the effect of GML on the growth of Haemophilus influenzae at various pHs. 1 μg/mL GML had no effect on the growth of H. influenzae at a pH of 7.0 (FIG. 13).

[13] = tested on: P. aeruginosa (strain PAO 1); assay: Effect of pH on GML activity; assay type: cell-based, Pseudomonas aeruginosa; conditions: GML 10 μg/mL to 5000 μg/mL, 24 hours
Description: The effect of GML at a range of concentrations and in the presence of a range of pH levels on the growth of Pseudomonas aeruginosa was also determined. P. aeruginosa (strain PAO 1) was inoculated in Todd Hewitt broth at 5.7×10^6/mL. GML was added to cultures at a range of concentrations from 10 μg/mL to 5000 μg/mL, and the pH was adjusted to 5.0, 6.0, or 7.0. CFU/mL was determined after 24 hours of incubation. […] A pH of 5.0 in the absence of GML was somewhat inhibitory for the growth of P. aeruginosa.

[14] = tested on: S. aureus MN8; assay: Antibacterial activity of GML after pre-treatment with sterile culture fluid; assay type: cell-based; conditions: 24 hour assay
[15] = tested on: S. aureus; assay: Decolonization of anterior nares; assay type: in vivo, human; conditions: 5% w/v GML in non-aqueous gel
Description: A study was undertaken to assess the ability of GML (5% w/v), formulated in a non-aqueous gel, to decolonize the respiratory tract in humans, and to decolonize contaminated surgical incision sites in experimental rabbits.
Three human subjects underwent swabs of the anterior nares in order to assess whether GML was capable of decolonizing the respiratory tract. […] The swabs were rotated around each nare up to the nasal bone 3 times. Colony-forming units of microbes from swabs were determined by plate counts on blood agar and mannitol salt agar. The anterior nares were then treated in the same way with swabs that had been dipped one time in GML gel. The anterior nares of each participant were swabbed at designated time periods for up to 24 hours, and swabs were cultured for S. aureus and coagulase-negative staphylococci.

[16] = tested on: oral aerobic bacteria; assay: Decolonization of teeth and gum lines; assay type: in vivo, human; conditions: 5% GML gel on teeth and gum lines; thirty minutes after treatment
Excerpt: Human volunteers were swabbed with a PBS-saturated swab across the teeth and gum lines on the left side of the mouth and tested for CFU/mL of total bacteria subsequently grown on blood agar plates. The same individuals were then swabbed with GML gel by swabbing the gel across the teeth and gum lines on the right side of the mouth. Enough gel was used to coat the entire surface area of the teeth and gum lines. Thirty minutes after treatment, the participants were swabbed with PBS-saturated swabs on the right side and total CFU/mL were determined. […] Bacterial counts on both sides of the teeth and gum lines were presumed to be approximately equal, and a pre-test swab confirmed that this was the case.

Glycerol monolaurate [GML]
Average Bactericidal Concentration of GML [1]: 50 µg/mL | Average Bactericidal Concentration of GML [2]: 100 µg/mL | Average Bactericidal Concentration of GML [3]: 50 µg/mL | Average Bactericidal Concentration of GML [4]: 50 µg/mL | Average Bactericidal Concentration of GML [5]: 1 µg/mL | Average Bactericidal Concentration of GML [6]: 1 µg/mL | Average Bactericidal Concentration of GML [7]: 10 µg/mL | Average Bactericidal Concentration of GML [8]: Not Susceptible | Average Bactericidal Concentration of GML [9]: Not Susceptible | GML concentration at which growth was completely or nearly completely inhibited [10]: ≥ 20 µg/mL | bactericidal GML concentration ([11]; pH 5.0): 0.1 µg/mL | bactericidal GML concentration ([11]; pH 6.0): 50 µg/mL | bactericidal GML concentration ([11]; pH 7.0): > 5000 µg/mL | increase in susceptibility to GML with each unit drop in pH ([11]; pH 7.0 to 5.0): 500 times | effect on growth (CFU/mL) ([12]; pH 6.0, 4, 8, and 24 hours): completely abrogated the growth | effect on growth (CFU/mL) ([12]; pH 7.0): no effect | effect on growth (CFU/mL) ([13]; pH 5.0): further inhibited P. aeruginosa growth in a dose-dependent manner | effect on growth (CFU/mL) ([13]; pH 6.0 or 7.0): no concentration of GML was inhibitory | antibacterial activity of GML after pre-incubation ([14]; pre-incubated overnight with sterile culture fluid from S. aureus MN8): eliminated the antibacterial activity | antibacterial activity of GML after pre-incubation ([14]; pre-incubated overnight with sterile culture fluid from S. pyogenes): did not affect | S. aureus counts in both nares after treatment ([15]; swab, three subjects, all time-points up to 24 hour): 0 CFU/mL | S. aureus counts over 3 day test period ([15]; one subject): 0 | reduction in CFUs between pretreatment and post-treatment swabs [16]: > 5 log
